{
  "source": "patent US5856535A",
  "about": "“Aminosterol ester compounds” (priority 1996, dated 1999)",
  "key": {"melanoma cells": {"system": "melanoma cells", "assay": "MTT assay for cell number", "format": "cell-based", "details": "for minimal effective concentration: 48 h, Table II, read-out: Minimum Effective Concentration, MTT assay; for IC50: read-out: MTT assay IC50", "protocol": "In Table V, several aminosterol esters show efficacy in killing melanoma cells in the MTT assay.\nThe MTT assay for cell number is performed as follows. Cells are counted on a hemocytometer and diluted to a concentration of approx. 10,000 cells/well (55,000 cells/ml×0.18 ml). Cells are then plated in a 96 well microtiter plate and allowed to attach overnight. The next day, compounds are serially diluted from 1000 to 15.6 μg/ml and run in duplicate. 20 μl of each dilution are transferred to the pre-seeded microtiter plates. The final concentrations are 100 to 1.56 μg/ml. The plates are then incubated for 48 hours at 37° C. in 5% CO2. After 48 hours, MTT solution is added. The plate is re-incubated for 4 hours. Readings are done by removing all but 30 μl of media and MTT solution and dissolving the formazan crystals with DMSO. The formazan is dissolved by mixing on a rotating plate at low speed for about 30 minutes. Absorbance of converted dye is measured at a wavelength of 560 nm with background subtraction at 630 nm. The percent survival is determined by a comparison between the mean absorbance of the duplicate test lanes and the growth control."}, "splenocytes": {"system": "splenocytes", "assay": "mitogen proliferation assay (splenocytes of treated mice, Con A)", "format": "in vivo", "details": "10 mg/kg iv", "protocol": "For the attached Tables, the mitogen proliferation assay was performed by treating mice (male or female) with various amounts of the aminosterol test compounds. Some time later (typically between 2 hours and 14 days), the mice are sacrificed and their spleens removed. Splenocytes are harvested and cultured in the presence of between 1-10 μg/ml of Con A (Sigma) for 48 hours. See James Morgan, \"Monoclonal Antibody Production,\" Modern Methods in Pharmacology, pp. 29-67, eds., Spector and Back, 1988. This excerpt is entirely incorporated herein by reference. Cell proliferation is monitored either by direct cell counting or by measurement of the incorporation of radioactive thymidine."}, "[1]": {"assay": "inhibition of MSI-1436 binding", "details": "3H-MSI-1436 at 20 μg/mL"}, "[2]": {"system": "chick embryo vitelline capillaries", "assay": "chick embryo vitelline capillary regression assay", "format": "in vivo", "design": "key to Chick embryo vitelline capillary regression: +: Vascular reactivity; 0: No vascular reactivity; +/-: Equivocal reactivity", "details": "for Chick embryo vitelline capillary regression: 60 minutes; for effect on vitelline capillaries (in words): 3- to 5-day chick embryo", "protocol": "Using the chick embryo vitelline capillaries assay, various aminosterol compounds were tested for their ability to induce capillary regression. Each compound was applied in 0.1 ml of 15% Ficol 400 and PBS onto the embryo, and vascular regression was assessed after 60 minutes. These tests were conducted by the chorioallantoic membrane anti-angiogenesis assay by applying the material to be assayed to 3 day old fertilized chick embryos in the manner described by Wilks et al., \"Inhibition of Angiogenesis With Combination Angiostatic Steroids and Suramin,\" Radiation Biology, Vol. 60, Nos. 1/2, 1991, pp. 73-77, which article is entirely incorporated herein by reference.\nThe 3-day chick embryo consists of an embryonic disc from which numerous vessels emerge and return, forming a \"figure 8\"-shaped structure--the embryo in the center with vascular loops extending outward over both poles. […] Following a lag period of around 15 minutes, the constriction of continuity between capillary and secondary vessels, generally on the \"venous\" side, was observed. Continued pulsatile blood flow progressed, resulting in a \"swelling\" of the blind tube, followed by a pinching off of the remaining connection and formation of an enclosed vascular sac resembling a \"blood island.\" This process progressed until only the largest vessels remained intact."}, "[3]": {"system": "Xenopus laevis Stages 59-60 tadpoles", "assay": "tadpole assay", "format": "in vivo", "details": "10 μg/ml where stated"}},
  "data": [
    {"smiles": "CC(CCC(=O)O)[C@H]1CCC2C3CC[C@H]4C[C@@H](NCCCNCCCCN)CC[C@]4(C)C3CC[C@@]21C", "note": "(some centres unmarked)", "values": [
      {"measurement": "minimal effective concentration", "setting": "melanoma cells", "result": 13.8, "unit": "µg/mL"}
    ]},
    {"smiles": "CC(CCC(=O)O)[C@H]1CCC2C3C(CC[C@@]21C)[C@@]1(C)CC[C@@H](NCCCNCCCCN)C[C@@H]1C[C@H]3O", "note": "(some centres unmarked)", "values": [
      {"measurement": "minimal effective concentration", "setting": "melanoma cells", "result": 58.6, "unit": "µg/mL"}
    ]},
    {"smiles": "CC(CCC(=O)O)[C@H]1CCC2C3C[C@@H](O)[C@H]4C[C@@H](NCCCNCCCCNCCCN)CC[C@]4(C)C3CC[C@@]21C", "note": "(some centres unmarked)", "values": [
      {"measurement": "Rel. potency to MSI-1436, Mitogen Proliferation Assay", "setting": "splenocytes", "result": 0.22},
      {"measurement": "% Inhib. of MSI-1436 Binding @ 100 μg/mL", "setting": "[1]", "result": -69, "unit": "%"}
    ]},
    {"smiles": "COC(=O)CCC(C)[C@H]1CCC2C3C[C@@H](O)[C@H]4C[C@@H](NCCCNCCCCNCCCN)CC[C@]4(C)C3CC[C@@]21C", "note": "(some centres unmarked)", "values": [
      {"measurement": "MTT assay IC50", "setting": "melanoma cells; Tables III-V", "result": 14, "unit": "µg/mL"},
      {"measurement": "IC50", "setting": "melanoma cells; Tables III-V", "result": 10, "unit": "µg/mL"},
      {"measurement": "Rel. potency to MSI-1436, Mitogen Proliferation Assay", "setting": "splenocytes", "result": 0.43},
      {"measurement": "% Inhib. of MSI-1436 Binding @ 100 μg/mL", "setting": "[1]", "result": 51, "unit": "%"}
    ]},
    {"smiles": "COC(=O)CCC(C)[C@H]1CCC2C3C[C@@H](O)[C@H]4C[C@@H](NCCN)CC[C@]4(C)C3CC[C@@]21C", "note": "(some centres unmarked)", "values": [
      {"measurement": "IC50", "setting": "melanoma cells; Tables III-V", "result": 0.8, "unit": "µg/mL"}
    ]},
    {"smiles": "COC(=O)CCC(C)[C@H]1CCC2C3C[C@@H](O)[C@H]4C[C@H](NCCN)CC[C@]4(C)C3CC[C@@]21C", "note": "(some centres unmarked)", "values": [
      {"measurement": "IC50", "setting": "melanoma cells; Tables III-V", "result": 2.9, "unit": "µg/mL"}
    ]},
    {"smiles": "COC(=O)CCC(C)[C@H]1CCC2C3C(CC[C@@]21C)[C@@]1(C)CC[C@H](NCCN)C[C@H]1C[C@H]3O", "note": "(some centres unmarked)", "values": [
      {"measurement": "IC50", "setting": "melanoma cells; Tables III-V", "result": 5.3, "unit": "µg/mL"}
    ]},
    {"smiles": "COC(=O)CCC(C)[C@H]1CCC2C3C(CC[C@@]21C)[C@@]1(C)CC[C@@H](NCCCNCCCCNCCCN)C[C@@H]1C[C@H]3O", "note": "(some centres unmarked)", "values": [
      {"measurement": "IC50", "setting": "melanoma cells; Tables III-V", "result": 7.8, "unit": "µg/mL"},
      {"measurement": "% Inhib. of MSI-1436 Binding @ 100 μg/mL", "setting": "[1]", "result": 15, "unit": "%"}
    ]},
    {"smiles": "COC(=O)CCC(C)[C@H]1CCC2C3C(CC[C@@]21C)[C@@]1(C)CC[C@H](NCCCNCCCCNCCCN)C[C@H]1C[C@H]3O", "note": "(some centres unmarked)", "values": [
      {"measurement": "IC50", "setting": "melanoma cells; Tables III-V", "result": 7.9, "unit": "µg/mL"},
      {"measurement": "% Inhib. of MSI-1436 Binding @ 100 μg/mL", "setting": "[1]", "result": 19, "unit": "%"}
    ]},
    {"smiles": "COC(=O)CCC(C)[C@H]1CCC2C3C[C@@H](O)[C@H]4C[C@@H](NCCCNCCCCN)CC[C@]4(C)C3CC[C@@]21C", "note": "(some centres unmarked)", "values": [
      {"measurement": "IC50", "setting": "melanoma cells; Tables III-V", "result": 12, "unit": "µg/mL"},
      {"measurement": "% Inhib. of MSI-1436 Binding @ 100 μg/mL", "setting": "[1]", "result": 57, "unit": "%"}
    ]},
    {"smiles": "CC(C)CCC[C@@H](C)[C@H]1CC[C@H]2[C@@H]3CC[C@H]4C[C@@H](NCCCNCCCCN)CC[C@]4(C)[C@H]3CC[C@]12C", "note": "[Compound 303]", "values": [
      {"measurement": "Chick embryo vitelline capillary regression", "setting": "[2]; 1 μg applied", "result": 0}
    ]},
    {"smiles": "C[C@H](CCC(=O)O)[C@H]1CC[C@H]2[C@@H]3CC[C@H]4C[C@H](NCCCNCCCCN)CC[C@]4(C)[C@H]3CC[C@]12C", "note": "[Compound 318]", "values": [
      {"measurement": "Chick embryo vitelline capillary regression", "setting": "[2]; 1 μg applied", "result": 0}
    ]},
    {"smiles": "C[C@H](CCC(=O)O)[C@H]1CC[C@H]2[C@@H]3CC[C@H]4C[C@@H](NCCCNCCCCN)CC[C@]4(C)[C@H]3CC[C@]12C", "note": "[Compound 319]", "values": [
      {"measurement": "Chick embryo vitelline capillary regression", "setting": "[2]; 0.001 μg applied", "result": "+/-"},
      {"measurement": "Chick embryo vitelline capillary regression", "setting": "[2]; 0.01 μg applied", "result": "+"},
      {"measurement": "Chick embryo vitelline capillary regression", "setting": "[2]; 0.1 μg applied", "result": "+"},
      {"measurement": "Chick embryo vitelline capillary regression", "setting": "[2]; 1 μg applied", "result": "+"},
      {"measurement": "Chick embryo vitelline capillary regression", "setting": "[2]; 10 μg applied", "result": "+"},
      {"measurement": "effect on vitelline capillaries (in words)", "setting": "[2]", "result": "especially active"},
      {"measurement": "vascular effect in tadpole (in words)", "setting": "[3]; about 60 minutes", "result": "common vascular occlusive effect"}
    ]},
    {"smiles": "COC(=O)CC[C@@H](C)[C@H]1CC[C@H]2[C@@H]3[C@H](O)C[C@H]4C[C@@H](NCCCNCCCCNCCCN)CC[C@]4(C)[C@H]3CC[C@]12C", "note": "[Compound 396]", "values": [
      {"measurement": "Chick embryo vitelline capillary regression", "setting": "[2]; 0.001 μg applied", "result": 0},
      {"measurement": "Chick embryo vitelline capillary regression", "setting": "[2]; 0.01 μg applied", "result": 0},
      {"measurement": "Chick embryo vitelline capillary regression", "setting": "[2]; 0.1 μg applied", "result": 0}
    ]},
    {"smiles": "COC(=O)CC[C@@H](C)[C@H]1CC[C@H]2[C@@H]3[C@H](O)C[C@@H]4C[C@@H](NCCN)CC[C@]4(C)[C@H]3CC[C@]12C", "note": "[Compound 409]", "values": [
      {"measurement": "effect on embryonic epithelium / epithelial shedding (in words)", "setting": "[3]", "result": "functionally similar to compound 1437"}
    ]},
    {"smiles": "C[C@H](CCC(=O)O)[C@H]1CC[C@H]2[C@@H]3[C@H](O)C[C@@H]4C[C@@H](NCCN)CC[C@]4(C)[C@H]3CC[C@]12C", "note": "[Compound 415]", "values": [
      {"measurement": "effect on vitelline capillaries (in words)", "setting": "[2]", "result": "especially active"}
    ]},
    {"smiles": "COC(=O)CC[C@@H](C)[C@H]1CC[C@H]2[C@@H]3CC[C@@H]4C[C@H](NCCN)CC[C@]4(C)[C@H]3C[C@H](O)[C@]12C", "note": "[Compound 416]", "values": [
      {"measurement": "effect on embryonic epithelium / epithelial shedding (in words)", "setting": "[3]", "result": "functionally similar to compound 1437"}
    ]}
  ]
}
